Source: patent publication US20120122924A1, “NAMPT INHIBITORS” (ABBOTT LABORATORIES, priority 2010, published 2012)
pIC50: −log10 of the molar value.

Molecular target: recombinant, human, C-terminally-His tagged NAMPT (Homo sapiens, UniProt P43490)
Experiment: Time-Resolved Fluorescence Resonance Energy Transfer (TR-FRET) binding assay of NAMPT
Details: 6.8 nM NAMPT, 200 nM probe (Oregon Green 488-conjugated APO866), 1 nM Tb-anti-His antibody, 2-3 hours
Protocol: Determination of the utility of compounds having Formula (I) as binders to and inhibitors of NAMPT was performed using a Time-Resolved Fluorescence Resonance Energy Transfer (TR-FRET) binding assay.
Time-Resolved Fluorescence Resonance Energy Transfer (TR-FRET) Binding Assay of NAMPT
The assay was carried out in 18 uL low volume plates (Owens Corning) in reaction buffer (50 mM HEPES (NaOH), pH 7.5, 100 mM NaCl, 10 mM MgCl2, 1 mM DTT, 1% Glycerol) using 6.8 nM recombinant, human, C-terminally-His tagged NAMPT, 1 nM Tb-anti-His antibody (Invitrogen, Cat # PV5895), and 200 nM probe (Oregon Green 488-conjugated APO866; A-1251667.0). Plates were covered, and reactions were carried out for 2-3 hours. Plates were read with Envision (Laser Lantha low volume protocol) after 2 to 3 hours. Excitation was carried out at 337 nm, and the ratio of emission of Oregon Green (520 nm) to terbium (492 nm) was determined and used to calculate IC50 values of test compounds.

Sequence of recombinant, human, C-terminally-His tagged NAMPT (P43490 whole entry): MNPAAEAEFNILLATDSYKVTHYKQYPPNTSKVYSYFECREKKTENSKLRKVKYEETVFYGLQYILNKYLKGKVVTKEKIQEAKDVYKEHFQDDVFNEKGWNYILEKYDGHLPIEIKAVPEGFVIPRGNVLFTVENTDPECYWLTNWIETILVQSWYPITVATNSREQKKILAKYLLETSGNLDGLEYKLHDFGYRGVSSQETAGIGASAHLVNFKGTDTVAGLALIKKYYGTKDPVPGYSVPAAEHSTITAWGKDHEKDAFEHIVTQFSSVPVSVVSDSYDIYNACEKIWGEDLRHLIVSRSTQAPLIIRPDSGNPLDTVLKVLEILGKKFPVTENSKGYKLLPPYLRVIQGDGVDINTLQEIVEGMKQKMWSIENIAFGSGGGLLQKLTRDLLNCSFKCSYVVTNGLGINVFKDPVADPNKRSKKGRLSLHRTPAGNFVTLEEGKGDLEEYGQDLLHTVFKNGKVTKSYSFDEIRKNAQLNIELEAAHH

O=C(Nc1ccc(NC(=O)N2CCc3ccccc3C2)cc1)C1Cc2ccccc2O1 (racemic) [Example 68, N-{4-[((2R)-2,3-dihydro-1-benzofuran-2-ylcarbonyl)amino]phenyl}-3,4-dihydroisoquinoline-2(1H)-carboxamide and N-{4-[((2S)-2,3-dihydro-1-benzofuran-2-ylcarbonyl)amino]phenyl}-3,4-dihydroisoquinoline-2(1H)-carboxamide]
pIC50: 8.35

O=C(Nc1ccc(C(=O)N2CCN(c3ccccn3)CC2)cc1)N1CCc2ccccc2C1 [Example 2, N-(4-{[4-(pyridin-2-yl)piperazin-1-yl]carbonyl}phenyl)-3,4-dihydroisoquinoline-2(1H)-carboxamide]
pIC50: 7.88

CC(C)CCNC(=O)Cc1ccc(NC(=O)N2CCc3ccccc3C2)cc1 [Example 29, N-(4-{2-[(3-methylbutyl)amino]-2-oxoethyl}phenyl)-3,4-dihydroisoquinoline-2(1H)-carboxamide]
pIC50: 5.82

O=C(NCCc1cccs1)c1ccc(NC(=O)N2CCc3ccncc3C2)cc1 [Example 30, N-(4-{[2-(2-thienyl)ethyl]carbamoyl}phenyl)-3,4-dihydro-2,7-naphthyridine-2(1H)-carboxamide]
pIC50: 5.68

CC(=O)N1CCC(C(=O)Nc2ccc(NC(=O)N3CCc4ccccc4C3)cc2)CC1 [Example 65, N-(4-{[(1-acetylpiperidin-4-yl)carbonyl]amino}phenyl)-3,4-dihydroisoquinoline-2(1H)-carboxamide]
pIC50: 6.94

O=C(NCCc1cccs1)c1ccc(NC(=O)N2CCc3ccccc3C2)nc1 [Example 19, N-(5-{[2-(2-thienyl)ethyl]carbamoyl}pyridin-2-yl)-3,4-dihydroisoquinoline-2(1H)-carboxamide]
pIC50: 6.71

O=C(Nc1ccc(-c2cnn(Cc3ccccc3)c2)cc1)N1CCc2ccccc2C1 [Example 38, N-[4-(1-benzyl-1H-pyrazol-4-yl)phenyl]-3,4-dihydroisoquinoline-2(1H)-carboxamide]
pIC50: 6.41

CNC(=O)N1CC=C(c2ccc(NC(=O)N3CCc4ccccc4C3)cc2)CC1 [Example 48, N-{4-[1-(methylcarbamoyl)-1,2,3,6-tetrahydropyridin-4-yl]phenyl}-3,4-dihydroisoquinoline-2(1H)-carboxamide]
pIC50: 7.49

CC(C)CCC(=O)Nc1ccc(NC(=O)N2CCc3ccccc3C2)cc1 [Example 31, N-{4-[(4-methylpentanoyl)amino]phenyl}-3,4-dihydroisoquinoline-2(1H)-carboxamide]
pIC50: 8.21

O=C(NCCc1cccs1)c1ccc(NC(=O)N2CCc3ccc(F)cc3C2)cc1 [Example 23, 7-fluoro-N-(4-{[2-(2-thienyl)ethyl]carbamoyl}phenyl)-3,4-dihydroisoquinoline-2(1H)-carboxamide]
pIC50: 6.44

O=C(CCC(=O)c1cccs1)Nc1ccc(NC(=O)N2CCc3ccccc3C2)cc1 [Example 66, N-(4-{[4-oxo-4-(2-thienyl)butanoyl]amino}phenyl)-3,4-dihydroisoquinoline-2(1H)-carboxamide]
pIC50: 7.82

CC(C)S(=O)(=O)N1CC=C(c2ccc(NC(=O)N3CCc4ccccc4C3)cc2)CC1 [Example 45, N-{4-[1-(isopropylsulfonyl)-1,2,3,6-tetrahydropyridin-4-yl]phenyl}-3,4-dihydroisoquinoline-2(1H)-carboxamide]
pIC50: 7.86

O=C(Nc1ccc(NC(=O)N2CCc3ccccc3C2)cc1)c1ccoc1 [Example 83, N-[4-(3-furoylamino)phenyl]-3,4-dihydroisoquinoline-2(1H)-carboxamide]
pIC50: 6.57

O=C(Nc1ccc(C2=CCNCC2)cc1)N1CCc2ccccc2C1 [Example 54, N-[4-(1,2,3,6-tetrahydropyridin-4-yl)phenyl]-3,4-dihydroisoquinoline-2(1H)-carboxamide]
pIC50: 6.54

O=C(NCCCc1ccccc1)c1ccc(NC(=O)N2CCc3ccncc3C2)cc1 [Example 25, N-{4-[(3-phenylpropyl)carbamoyl]phenyl}-3,4-dihydro-2,7-naphthyridine-2(1H)-carboxamide]
pIC50: 6.22

O=C(Cc1ccc(NC(=O)N2CCc3ccccc3C2)cc1)NCCCc1ccccc1 [Example 27, N-(4-{2-oxo-2-[(3-phenylpropyl)amino]ethyl}phenyl)-3,4-dihydroisoquinoline-2(1H)-carboxamide]
pIC50: 5.99

CC(C)CCNC(=O)c1ccc(NC(=O)N2CCc3cnccc3C2)cc1 [Example 5, N-{4-[(3-methylbutyl)carbamoyl]phenyl}-3,4-dihydro-2,6-naphthyridine-2(1H)-carboxamide]
pIC50: 7.80

O=C(Nc1ccc(NC(=O)N2CCc3ccccc3C2)cc1)c1cn[nH]c1 [Example 89, N-{4-[(1H-pyrazol-4-ylcarbonyl)amino]phenyl}-3,4-dihydroisoquinoline-2(1H)-carboxamide]
pIC50: 6.69

CCC(C)CC(=O)Nc1ccc(NC(=O)N2CCc3ccccc3C2)cc1 (racemic) [Example 69, N-{4-[((3R)-3-methylpentanoyl)amino]phenyl}-3,4-dihydroisoquinoline-2(1H)-carboxamide and N-{4-[((3S)-3-methylpentanoyl)amino]phenyl}-3,4-dihydroisoquinoline-2(1H)-carboxamide]
pIC50: 8.19

O=C(Cc1ccccc1)NCCc1ccc(NC(=O)N2CCc3ccccc3C2)cc1 [Example 61, N-(4-{2-[(phenylacetyl)amino]ethyl}phenyl)-3,4-dihydroisoquinoline-2(1H)-carboxamide]
pIC50: 5.90

CC(C)(C)OC(=O)N1CC=C(c2ccc(NC(=O)N3CCc4ccccc4C3)cc2)CC1 [Example 49, tert-butyl 4-{4-[(3,4-dihydroisoquinolin-2(1H)-ylcarbonyl)amino]phenyl}-3,6-dihydropyridine-1(2H)-carboxylate]
pIC50: 7.31

CCCn1cc(-c2ccc(NC(=O)N3CCc4ccccc4C3)cc2)cn1 [Example 35, N-[4-(1-propyl-1H-pyrazol-4-yl)phenyl]-3,4-dihydroisoquinoline-2(1H)-carboxamide]
pIC50: 6.99

O=C(Nc1ccc(NC(=O)N2CCc3ccccc3C2)cc1)c1ccno1 [Example 90, N-{4-[(1,2-oxazol-5-ylcarbonyl)amino]phenyl}-3,4-dihydroisoquinoline-2(1H)-carboxamide]
pIC50: 6.50

O=C(CC1CCCCC1)Nc1ccc(NC(=O)N2CCc3ccccc3C2)cc1 [Example 79, N-{4-[(cyclohexylacetyl)amino]phenyl}-3,4-dihydroisoquinoline-2(1H)-carboxamide]
pIC50: 8.28

CSCCC(=O)Nc1ccc(NC(=O)N2CCc3ccccc3C2)cc1 [Example 76, N-(4-{[3-(methylthio)propanoyl]amino}phenyl)-3,4-dihydroisoquinoline-2(1H)-carboxamide]
pIC50: 7.83

O=C(CCN1CCCCC1)Nc1ccc(NC(=O)N2CCc3ccccc3C2)cc1 [Example 93, N-(4-{[3-(piperidin-1-yl)propanoyl]amino}phenyl)-3,4-dihydroisoquinoline-2(1H)-carboxamide]
pIC50: 6.28

COCCOCC(=O)Nc1ccc(NC(=O)N2CCc3ccccc3C2)cc1 [Example 74, N-(4-{[(2-methoxyethoxy)acetyl]amino}phenyl)-3,4-dihydroisoquinoline-2(1H)-carboxamide]
pIC50: 7.06

O=C(Nc1ccc(NC(=O)N2CCc3ccccc3C2)cc1)c1ccn[nH]1 [Example 88, N-{4-[(1H-pyrazol-5-ylcarbonyl)amino]phenyl}-3,4-dihydroisoquinoline-2(1H)-carboxamide]
pIC50: 6.87

CC(C)CCNC(=O)c1ccc(NC(=O)N2CCc3ccccc3C2)nc1 [Example 10, N-{5-[(3-methylbutyl)carbamoyl]pyridin-2-yl}-3,4-dihydroisoquinoline-2(1H)-carboxamide]
pIC50: 7.53

O=C(Nc1ccc(NC(=O)N2CCc3ccccc3C2)cc1)C1CCCCC1 [Example 78, N-{4-[(cyclohexylcarbonyl)amino]phenyl}-3,4-dihydroisoquinoline-2(1H)-carboxamide]
pIC50: 7.18

O=C(Cc1ccccn1)Nc1ccc(NC(=O)N2CCc3ccccc3C2)cc1 [Example 91, N-{4-[(pyridin-2-ylacetyl)amino]phenyl}-3,4-dihydroisoquinoline-2(1H)-carboxamide]
pIC50: 7.80

CC(C)CCn1cc(NC(=O)c2ccc(NC(=O)N3CCc4ccccc4C3)cc2)cn1 [Example 11, N-(4-{[1-(3-methylbutyl)-1H-pyrazol-4-yl]carbamoyl}phenyl)-3,4-dihydroisoquinoline-2(1H)-carboxamide]
pIC50: 7.36

O=C(CCS(=O)(=O)c1ccccc1)Nc1ccc(NC(=O)N2CCc3ccccc3C2)cc1 [Example 67, N-(4-{[3-(phenylsulfonyl)propanoyl]amino}phenyl)-3,4-dihydroisoquinoline-2(1H)-carboxamide]
pIC50: 7.78

CC(C)CCn1cc(-c2ccc(NC(=O)N3CCc4ccccc4C3)cc2)cn1 [Example 37, N-{4-[1-(3-methylbutyl)-1H-pyrazol-4-yl]phenyl}-3,4-dihydroisoquinoline-2(1H)-carboxamide]
pIC50: 6.53

CN(C)CCC(=O)Nc1ccc(NC(=O)N2CCc3ccccc3C2)cc1 [Example 92, N-{4-[(N,N-dimethyl-beta-alanyl)amino]phenyl}-3,4-dihydroisoquinoline-2(1H)-carboxamide]
pIC50: 5.23

CN1CCN(CCC(=O)Nc2ccc(NC(=O)N3CCc4ccccc4C3)cc2)CC1 [Example 96, N-(4-{[3-(4-methylpiperazin-1-yl)propanoyl]amino}phenyl)-3,4-dihydroisoquinoline-2(1H)-carboxamide]
pIC50: 6.89
